A short description of test [1]: Inhibition of COX2 expression in HCA-7 cells at 1 mM after 48 hrs by Western blot method relative to control. The class given is functional. The settings on record: Homo sapiens, HCA-7, 48 h. (A western blot detects proteins with antibodies after separation by electrophoresis.)
Test [2] can be described thus: Inhibition of COX2 expression in HCA-7 cells at 12 uM after 48 hrs by Western blot method relative to control. Type of test: functional. To be noted: Homo sapiens, HCA-7, 48 h.
The target of test [3] is T1, Prostaglandin G/H synthase 2 (Homo sapiens) (UniProt P35354).
T1 sequence (whole entry): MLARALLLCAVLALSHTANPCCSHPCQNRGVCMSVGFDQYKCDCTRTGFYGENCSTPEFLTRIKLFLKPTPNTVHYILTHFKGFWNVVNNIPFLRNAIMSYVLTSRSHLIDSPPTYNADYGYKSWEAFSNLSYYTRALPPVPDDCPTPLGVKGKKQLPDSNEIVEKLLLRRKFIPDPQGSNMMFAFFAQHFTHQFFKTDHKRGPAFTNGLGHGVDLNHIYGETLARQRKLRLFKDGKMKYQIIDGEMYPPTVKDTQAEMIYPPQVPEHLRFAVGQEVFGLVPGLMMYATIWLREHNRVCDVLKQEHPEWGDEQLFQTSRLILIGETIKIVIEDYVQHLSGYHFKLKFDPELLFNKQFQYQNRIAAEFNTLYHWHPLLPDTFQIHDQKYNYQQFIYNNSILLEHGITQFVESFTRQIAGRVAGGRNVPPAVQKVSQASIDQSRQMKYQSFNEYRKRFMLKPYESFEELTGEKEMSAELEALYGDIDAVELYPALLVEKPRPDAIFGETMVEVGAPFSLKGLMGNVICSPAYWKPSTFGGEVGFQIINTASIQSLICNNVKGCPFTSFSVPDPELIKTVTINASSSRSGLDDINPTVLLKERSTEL
Nature of the test: Inhibition of COX2 in HCA-7 cells assessed as reduction in PGE2 release at 12 uM after 48 hrs by ELISA relative to control. The class given is cell-based. (In general: An ELISA detects its analyte on a solid surface through an enzyme-linked reagent.)

For orientation: inhibition means the share of the control response that was lost under treatment. The compound `CC(=O)Oc1ccccc1C(=O)O` [ASPIRIN] returned an inhibition at 1000 µM in test [1] of 12%.

In test [2], `COc1ccc(/C=C2\COc3cc(O)c(O)c(O)c3C2=O)cc1O` registered an inhibition at 12 µM of 10%. Also, the inhibition in test [3] is 20%.

Take `COc1ccc(/C=C2\COc3cc(O)cc(O)c3C2=O)cc1OC(C)=O`: in test [2], the inhibition at 12 µM amounted to 8%. For the same compound, in test [3], the inhibition was 11%.

The values above are taken from ChEMBL document CHEMBL4004798, “Phytochemical Investigations of Three Rhodocodon (Hyacinthaceae Sensu APG II) Species” (2017).
